From patent US7371813B2, “Method for use of IGF-binding protein for selective sensitization of target cells in vivo” (Bioexpertise LLC, priority 2000, dated 2008) come the findings set out here.

For one assay, the system named is MDA-MB-231 tumors. As to the kind of experiment: MDA-MB-231 mammary tumors implanted SC in nude mice, tumor growth. It counts as in vivo. Particulars: for Median tumor volume, day 15: Day 15 post-implant (treatment start); for Median tumor volume, day 15 / Days Delay in tumor growth: MDA-MB-231, nude mice; for Median tumor volume, day 19: Day 19 post-implant; for Median tumor volume, day 22: Day 22 post-implant; for Median tumor volume, day 26: Day 26 post-implant; for Median tumor volume, day 29: Day 29 post-implant; for Median tumor volume, day 33: Day 33 post-implant; for Days Delay in tumor growth: endpoint of 3× doubling of tumor weight; for Tumor growth, difference from control: statistical comparison with the control group. The method, then: MDA-MB-231 tumors were implanted in nude mice. Ten animals (NCr-nu) were allocated to each group. The tumors were implanted SC as trocar fragments and allowed to increase in size to approximately 170 mg before treatment began on Day 15 post-implant. The treatment regimen for [N109D]-IGFBP-3 was 4.0 mg/kg/dose, daily for 21 days, SC beginning on Day 15. The treatment regimen for Taxol was 5.0 mg/kg/day, daily for five days, IV. The treatment regimen for Cisplatin was 4.0 mg/kg/dose, administered every fourth day for three treatments, IP. Treatment regimens for TAXOL® and Cisplatin began on Day 18. Tumor measurements were performed daily.

For assay [1], the system named is 16C mammary adenocarcinoma. The experiment in a line: 16C mammary adenocarcinoma SC tumor implants in C3H mice, tumor growth. It counts as in vivo. Particulars: for Days Delay in tumor growth: endpoint of 1500 mg tumor weight, 16C tumors, C3H mice. As to the method: Female C3H mice (8-11 animals per group) received early SC implants of 16C mammary adenocarcinoma tumor fragments (near 100% “take”) and were treated with vehicle, [N109D]-IGFBP-3 (4 mg/kg/day SC ×21), 5-FU (10 mg/kg/day IP ×5), adriamycin (2 mg/kg/dose IV on day 1 and day 8 post-implant), or the indicated combinations. Tumors were measured twice weekly. Animals were sacrificed at Day 21. The doses of doxorubicin and 5-fluorouracil used in this experiment were chosen to be marginally effective, based on previous experience with these chemical agents in this model. […] The results are shown graphically in FIG. 2.

The test system of a further assay is tumor growth. As to the kind of experiment: Systemic IGFBP-3 alone in animal models of cancer, tumor growth. In kind it is in vivo. Particulars: 4 mg/kg for 21 days, more than one animal model of cancer. The method, then:
This was surprising because it was believed that IGFBP-3 alone could cause the death of some tumor cells. The dose chosen is likely to be close to the maximum practicable dose that would be systemically delivered in a human clinical setting. The maximum practicable dose is determined by the cost, pharmacokinetics, toxicology, solubility of the formulation, route of administration, and other practical considerations.

The test system of assay [2] is 1,176 mouse gene sequences. As to the kind of experiment: Gene array analysis (Atlas 1.2k-I mouse gene arrays) of 16C tumor tissue. It counts as in vivo. The method, then: (§1) In order to gain further insights into the mechanism of action of exogenously added IGFBP-3 in these mouse models, tumor tissues from the groups treated with vehicle, doxorubicin, or doxorubicin plus IGFBP-3, were further analyzed using gene array technology. RNA was extracted from tumor tissue. cDNA was prepared, labelled and used to probe Atlas 1.2k-I mouse gene arrays (Clontech Laboratories Inc., Palo Alto, Calif.). These arrays contain 1,176 mouse gene sequences.

The test system of another assay is RXR-alpha. As to the kind of experiment: RXR-alpha levels in 16C tumor tissue (gene array). It counts as in vivo, mouse. The note with it: 16C tumors from treated animals. As to the method: as §1

Marks after values point to notes of the source that are not given here.

In the case of `CC(=O)O[C@H]1C(=O)[C@@]2(C)[C@H]([C@H](OC(=O)c3ccccc3)[C@]3(O)C[C@H](OC(=O)[C@H](O)[C@@H](NC(=O)c4ccccc4)c4ccccc4)C(C)=C1C3(C)C)[C@]1(OC(C)=O)CO[C@@H]1C[C@@H]2O` [TAXOL ®, paclitaxel], in the assay on MDA-MB-231 tumors, the “Median tumor volume, day 15” value is reported as 153 ± 32 milligrams; the “Median tumor volume, day 19” value stood at 327 ± 131 milligrams; the “Median tumor volume, day 22” value was found to be 384 ± 337 milligrams; the “Median tumor volume, day 26” value came to 512 ± 489 milligrams. Moreover, in the assay with MDA-MB-231 tumors, the “Median tumor volume, day 29” value stood at 648 ± 538 milligrams; the “Median tumor volume, day 33” value worked out at 900 ± 1067 milligrams; the “Days Delay in tumor growth” value is given as “+3.5 days”; the “Tumor growth, difference from control” value was “significantly different from control”.
For “[N109D]-IGFBP-3: derivative of IGFBP-3 that has an amino acid sequence alteration at position 109 of the mature sequence”, the “Effect on tumor growth on its own” value in assay [1] (4 mg/kg/day SC ×21) is “no measurable effects”. For the same compound, in assay [1] (4 mg/kg/day SC ×21 with marginally effective doses of the agents), the “Potentiation of the effects of co-administered doxorubicin and 5-fluorouracil” value is on record as “significantly (p<0.01) potentiated the effects of both agents”. The “Days Delay in tumor growth” value in assay [1] is -0.2 days. Also, in the assay on MDA-MB-231 tumors, the “Days Delay in tumor growth” value was -2.2 days and the “Tumor growth, difference from control” value was “not significantly different from control”.
As to `O=c1[nH]cc(F)c(=O)[nH]1` [5-FLUOROURACIL, 5-fluorouracil], in assay [1], the “Days Delay in tumor growth” value is given as “+1.9 days”.
“IGFBP-3: insulin-like growth factor binding protein 3; in Table 2 the group received [N109D]-IGFBP-3”: in the assay on MDA-MB-231 tumors, the “Median tumor volume, day 15” value amounted to 161 ± 35 milligrams; the “Median tumor volume, day 19” value was determined as 367.5 ± 244 milligrams; the “Median tumor volume, day 22” value stood at 565 ± 510 milligrams; the “Median tumor volume, day 26” value is listed as 818.5 ± 750 milligrams. Further, in the assay with MDA-MB-231 tumors, the “Median tumor volume, day 29” value worked out at 1089 ± 851 milligrams and the “Median tumor volume, day 33” value stood at 1936 ± 1825 milligrams. The “Slowing of tumor growth by IGFBP-3 alone” value in the assay on tumor growth is given as “completely ineffective”.
With `N.N.[Cl][Pt][Cl]` [CISPLATIN, cisplatin], in the assay with MDA-MB-231 tumors, the “Median tumor volume, day 15” value is given as 171 ± 33 milligrams; the “Median tumor volume, day 19” value is recorded as 368 ± 124 milligrams; the “Median tumor volume, day 22” value worked out at 446 ± 175 milligrams; the “Median tumor volume, day 26” value came to 563 ± 214 milligrams. Further, in the assay with MDA-MB-231 tumors, the “Median tumor volume, day 29” value is 675 ± 220 milligrams; the “Median tumor volume, day 33” value is on record as 922 ± 299 milligrams; the “Tumor growth, difference from control” value was “significantly different from control”.
On to `COc1cccc2c1C(=O)c1c(O)c3c(c(O)c1C2=O)C[C@@](O)(C(=O)CO)C[C@@H]3O[C@H]1C[C@H](N)[C@H](O)[C@H](C)O1` [ADRIAMYCIN ®, doxorubicin], for which, in assay [1], the “Days Delay in tumor growth” value was “+2.5* days”. The “Number of down-regulated genes” value in assay [2] (among the differentially expressed genes) stood at 16 genes. Moreover, in assay [2] (of 1,176 gene sequences), the “Number of differentially expressed genes” value is recorded as 26 genes and the “Share of genes differentially expressed” value is listed as 2%. Besides, the “Inhibition of RXR-alpha levels in tumors” value in the assay with RXR-alpha is “not”.
